Source: PMC10502144, “Anti-methicillin-resistant Staphylococcus aureus activity and safety evaluation of 14-O-[(5-ethoxycarbonyl-4,6-dimethylpyrimidine-2-yl) thioacetyl] mutilin (EDT)” (Scientific Reports, 2023)

Key:
[1] = Cytotoxicity assay (CCK-8), HEK293T; assay type: cell-based; conditions: human, HEK293T cells
Description: Cytotoxicity of EDT and tiamulin was studied against human hepatocellular carcinoma cells (HepG2) and human embryonic kidney 293T (HEK293T) cells following a protocol as published in our earlier reports[41],[42]. Cells were counted and inoculated into 96-well plates with approximately10^5 cells density for incubating 24 h at 37 °C. […] The same procedure was repeated three times. The percentages of cell viability were calculated by the formula: Cell viability (%) = [Asample ‒ Anegative]/[Apositve ‒ Anegative] × 100%.

[2] = system: Escherichia coli WP2uvrA pKM101; experiment: Ames test, pKM101
Description: Before the test, Salmonella Typhimurium (S. Typhimurium) TA97a, TA98, TA100, TA102, TA1535 and Escherichia coli WP2uvrA pKM101 (pKM101) were first checked for their genetic integrity, including biotin dependence, rfa marker (crystal violet), biotin, histidine dependence and presence of the plasmid pKM101 (ampicillin resistance) or pAQ1 (tetracycline resistance). […] The maximum concentration of EDT was also screened using a preliminary experiment.
DMSO (0.1 mL) was directly incorporated into 1.9 mL melted top agar as the vehicle control. […] Each strain (0.1 mL, 6–7 log10 CFU/mL) was added into 2 mL of top agar in which comprised 0.5 mL S9 (10%), serial concentrations of EDT (2000, 400, 80, 16 and 3.2 μg/plate), DMSO or control chemicals for testing with the S9. For testing without S9, 0.5 mL phosphate buffer saline (PBS, pH 7.4) replaced the S9 mix. Then, the obtained top agar was melted, poured onto the surface of […] and swirled to distribute the top agar to all surfaces of medium, followed by incubation at 37 °C for 48 h. The resultant colonies were counted manually as the number of revertant colonies per plate. The experiments were performed in triplicate and the results were expressed as the average ± SD.

C=CC1(C)CC(OC(=O)CSc2nc(C)c(C(=O)OCC)c(C)n2)C2(C)C(C)CCC3(CCC(=O)C32)C(C)C1O (stereo not drawn) [EDT, 14-O-[(5-ethoxycarbonyl-4,6-dimethylpyrimidine-2-yl)thioacetyl] mutilin]
CC50 at 6 h ([1]; 200 μM converted to μg/mL): > 115 µg/mL
CC50 at 6 h ([1]; deduced from Fig. 5): > 200 µM
number of revertant colonies per plate ([2]; pKM101, 3.2 μg/plate, +S9): 50.33 ± 2.67
number of revertant colonies per plate ([2]; pKM101, 3.2 μg/plate, −S9): 42.00 ± 3.00
number of revertant colonies per plate ([2]; pKM101, 16 μg/plate, +S9): 54.00 ± 4.00
number of revertant colonies per plate ([2]; pKM101, 16 μg/plate, −S9): 46.00 ± 5.00
number of revertant colonies per plate ([2]; pKM101, 80 μg/plate, +S9): 44.00 ± 4.00
number of revertant colonies per plate ([2]; pKM101, 80 μg/plate, −S9): 41.33 ± 3.67
number of revertant colonies per plate ([2]; pKM101, 400 μg/plate, +S9): 53.00 ± 5.00
number of revertant colonies per plate ([2]; pKM101, 400 μg/plate, −S9): 51.33 ± 3.67
number of revertant colonies per plate ([2]; pKM101, 2000 μg/plate, +S9): 50.33 ± 3.67
number of revertant colonies per plate ([2]; pKM101, 2000 μg/plate, −S9): 47.00 ± 4.00
